Counter-ions that a name gives are not always drawn.
Tested on: Human platelet aggregation caused by ADP
Assay: Inhibition of ADP-induced platelet aggregation (Mimic-human PRP)
Type: cell-based
Details: 20 μM ADP, human platelet concentrate diluted with PPP, absorption at 595 nm
Procedure: Platelet Preparation for Aggregation Studies
Human platelet aggregation reaction test is a functional experiment method to verify whether a test compound is an agonist or an antagonist to ADP receptor. […] The platelet product isolated from whole blood was purchased from Chung-Nam blood center (Dae-joen, South Korea). The platelet was isolated from 400 mL of whole blood containing 56 mL of CPDA-1 anticoagulant. To isolate the platelet product, 400 mL of whole blood was centrifuged at 260×g for 5 minutes, and then obtained PRP (platelet rich plasma) was secondary centrifuged at 370×g for 6 minutes. Platelet pellet (10^9/mL) was suspended with 45 mL of plasma and then agitated over 1 hour at 22° C. blood reservoir to stabilize it. The stabilized platelet product was used in the experiment within 24 hours. PCs (Platelet Concentrates) were gently transferred to a new 50 ml-falcon tube. The number of platelet was counted by using animal blood counter (ABC Vet, ABX diagnostics, France). The volume of 30 mL of PCs collected from same donor was centrifuged at 1500 g for 10 min at room temperature to prepare platelet-poor plasma (PPP). The platelet count was adjusted to platelet number of 3˜4×10^8/mL by diluting with PPP.
Evaluation on Inhibitory Effect of ADP-Induced Aggregation
Inhibition of ADP-induced aggregation was determined in 96-well flat-bottom plates (Costar, USA) at room temperature. The diluted platelet was aliquoted into each well of 96 well plate in the volume of 188 μl. […] The platelet including test compounds was immediately mixed on a shaker at 1050 rpm for 1 min and incubated at room temperature for 20 min. Then, 10 μL volume of 400 μM ADP was added: the final concentration of 20 μM ADP in the total reaction volume of 0.2 mL/well. After shaking of the plate at room temperature for 3 min, the absorption of the samples was determined at 595 nm using a microtiter plate reader (Softmax, Molecular Devices).
A dose-dependent curve on serial dilutions of ADP was accomplished by adding vehicle (DMSO) instead of antagonists in order to calculate EC50 of ADP. Inhibition of aggregation was calculated from the increase of absorption at 595 nm at 3 min of the reaction incubation, compared to results of absorption between the 0 and 20 μM ADP control without antagonists. Sigmoidal dose-response curves and Ki were derived by non-linear regression analysis using the Prism software (GraphPad, San Diego Calif.).

Structure (SMILES) | Ki
CCCc1cc2c(N3CCn4c(nnc4C(F)(F)F)C3)nc(OCCNC(=O)CO)nc2s1 [Example 3-60, 2-Hydroxy-N-{2-[6-propyl-4-(3-trifluoromethyl-5,6-dihydro-8H-[1,2,4]triazolo[4,3-a]pyrazin-7-yl)-thieno[2,3-d]pyrimidin-2-yloxy]-ethyl}-acetamide] | 0.7 nM
CCCc1cc2c(N3CCn4c(nnc4C(F)(F)F)C3)nc(OCCNC(=O)C(F)(F)F)nc2s1 [Example 3-61, 2,2,2-Trifluoro-N-{2-[6-propyl-4-(3-trifluoromethyl-5,6-dihydro-8H-[1,2,4]triazolo[4,3-a]pyrazin-7-yl)-thieno[2,3-d]pyrimidin-2-yloxy]-ethyl}-acetamide] | 5.4 nM
CCCc1cc2c(N3CCn4c(nnc4C(F)(F)F)C3)nc(OCCN3CCCC3=O)nc2s1 [Example 3-62, 1-{2-[6-Propyl-4-(3-trifluoromethyl-5,6-dihydro-8H-[1,2,4]triazolo[4,3-a]pyrazin-7-yl)-thieno[2,3-d]pyrimidin-2-yloxy]-ethyl}-pyrrolidin-2-one] | 1.9 nM
CCCc1cc2c(N3CCn4c(nnc4C(F)(F)F)C3)nc(-c3nc(C(=O)O)cs3)nc2s1 [Example 4-46, 2-[6-Propyl-4-(3-trifluoromethyl-5,6-dihydro-8H-[1,2,4]triazolo[4,3-a]pyrazin-7-yl)thieno[2,3-d]pyrimidin-2-yl]thiazole-4-carboxylic acid] | 25 nM
CCCC(=O)N[C@H]1CCN(c2nc(N3CCn4c(nnc4C(F)(F)F)C3)c3cc(CCC)sc3n2)C1 [Example 7-1, Hydrochloric acid salt of N-{(S)-1-[6-Propyl-4-(3-trifluoromethyl-5,6-dihydro-8H-[1,2,4]triazolo[4,3-a]pyrazin-7-yl)-thieno[2,3-d]pyrimidin-2-yl]-pyrrolidin-3-yl}-butyramide] | 11 nM
CCCc1cc2c(N3CCn4c(nnc4C(F)(F)F)C3)nc(N3CC[C@H](NC(=O)C(C)C)C3)nc2s1 [Example 7-2, Hydrochloric acid salt of N-{(S)-1-[6-Propyl-4-(3-trifluoromethyl-5,6-dihydro-8H-[1,2,4]triazolo[4,3-a]pyrazin-7-yl)-thieno[2,3-d]pyrimidin-2-yl]-pyrrolidin-3-yl}-isobutyramide] | 79 nM
CCCc1cc2c(N3CCn4c(nnc4C(F)(F)F)C3)nc(N3CC[C@@H](NC(C)=O)C3)nc2s1 [Example 7-3, Hydrochloric acid salt of N-{(R)-1-[6-Propyl-4-(3-trifluoromethyl-5,6-dihydro-8H-[1,2,4]triazolo[4,3-a]pyrazin-7-yl)-thieno[2,3-d]pyrimidin-2-yl]-pyrrolidin-3-yl}-acetamide] | 26 nM
CCCC(=O)N[C@@H]1CCN(c2nc(N3CCn4c(nnc4C(F)(F)F)C3)c3cc(CCC)sc3n2)C1 [Example 7-4, Hydrochloric acid salt of N-{(R)-1-[6-Propyl-4-(3-trifluoromethyl-5,6-dihydro-8H-[1,2,4]triazolo[4,3-a]pyrazin-7-yl)-thieno[2,3-d]pyrimidin-2-yl]-pyrrolidin-3-yl}-butyramide] | 75 nM
CCCc1cc2c(N3CCn4c(nnc4C(F)(F)F)C3)nc(N3CC[C@@H](NC(=O)C(C)C)C3)nc2s1 [Example 7-5, Hydrochloric acid salt of N-{(R)-1-[6-Propyl-4-(3-trifluoromethyl-5,6-dihydro-8H-[1,2,4]triazolo[4,3-a]pyrazin-7-yl)-thieno[2,3-d]pyrimidin-2-yl]-pyrrolidin-3-yl}-isobutyramide] | 32 nM
CCCc1cc2c(N3CCn4c(nnc4C(F)(F)F)C3)nc(N3CCC[C@@H](NC(C)=O)C3)nc2s1 [Example 7-6, Hydrochloric acid salt of N-{(R)-1-[6-Propyl-4-(3-trifluoromethyl-5,6-dihydro-8H-[1,2,4]triazolo[4,3-a]pyrazin-7-yl)-thieno[2,3-d]pyrimidin-2-yl]-piperidin-3-yl}-acetamide] | 18 nM
CCCC(=O)N[C@@H]1CCCN(c2nc(N3CCn4c(nnc4C(F)(F)F)C3)c3cc(CCC)sc3n2)C1 [Example 7-7, Hydrochloric acid salt of N-{(R)-1-[6-Propyl-4-(3-trifluoromethyl-5,6-dihydro-8H-[1,2,4]triazolo[4,3-a]pyrazin-7-yl)-thieno[2,3-d]pyrimidin-2-yl]-piperidin-3-yl}-butyramide] | 63 nM
CCCc1cc2c(N3CCn4c(nnc4C(F)(F)F)C3)nc(N3CCC[C@@H](NC(=O)C(C)C)C3)nc2s1 [Example 7-8, Hydrochloric acid salt of N-{(R)-1-[6-Propyl-4-(3-trifluoromethyl-5,6-dihydro-8H-[1,2,4]triazolo[4,3-a]pyrazin-7-yl)-thieno[2,3-d]pyrimidin-2-yl]-piperidin-3-yl}-isobutyramide] | 150 nM
CCCc1cc2c(N3CCn4c(nnc4C(F)(F)F)C3)nc(N3CCC[C@H](NC(C)=O)C3)nc2s1 [Example 7-9, Hydrochloric acid salt of N-{(S)-1-[6-Propyl-4-(3-trifluoromethyl-5,6-dihydro-8H-[1,2,4]triazolo[4,3-a]pyrazin-7-yl)-thieno[2,3-d]pyrimidin-2-yl]-piperidin-3-yl}-acetamide] | 590 nM
CCCC(=O)N[C@H]1CCCN(c2nc(N3CCn4c(nnc4C(F)(F)F)C3)c3cc(CCC)sc3n2)C1 [Example 7-10, Hydrochloric acid salt of N-{(S)-1-[6-Propyl-4-(3-trifluoromethyl-5,6-dihydro-8H-[1,2,4]triazolo[4,3-a]pyrazin-7-yl)-thieno[2,3-d]pyrimidin-2-yl]-piperidin-3-yl}-butyramide] | 980 nM
CCCc1cc2c(N3CCn4c(nnc4C(F)(F)F)C3)nc(N3CCC[C@H](NC(=O)C(C)C)C3)nc2s1 [Example 7-11, Hydrochloric acid salt of N-{(S)-1-[6-Propyl-4-(3-trifluoromethyl-5,6-dihydro-8H-[1,2,4]triazolo[4,3-a]pyrazin-7-yl)-thieno[2,3-d]pyrimidin-2-yl]-piperidin-3-yl}-isobutyramide] | 280 nM
CCCc1cc2c(N3CCn4c(nnc4C(F)(F)F)C3)nc(N3CCC(NC(C)=O)CC3)nc2s1 [Example 7-12, Hydrochloric acid salt of N-{1-[6-Propyl-4-(3-trifluoromethyl-5,6-dihydro-8H-[1,2,4]triazolo[4,3-a]pyrazin-7-yl)-thieno[2,3-d]pyrimidin-2-yl]-piperidin-4-yl}-acetamide] | 35 nM
CCCC(=O)NC1CCN(c2nc(N3CCn4c(nnc4C(F)(F)F)C3)c3cc(CCC)sc3n2)CC1 [Example 7-13, Hydrochloric acid salt of N-{1-[6-Propyl-4-(3-trifluoromethyl-5,6-dihydro-8H-[1,2,4]triazolo[4,3-a]pyrazin-7-yl)-thieno[2,3-d]pyrimidin-2-yl]-piperidin-4-yl}-butyramide] | 76 nM
CCCc1cc2c(N3CCn4c(nnc4C(F)(F)F)C3)nc(N3CCC(NC(=O)C(C)C)CC3)nc2s1 [Example 7-14, Hydrochloric acid salt of N-{1-[6-Propyl-4-(3-trifluoromethyl-5,6-dihydro-8H-[1,2,4]triazolo[4,3-a]pyrazin-7-yl)-thieno[2,3-d]pyrimidin-2-yl]-piperidin-4-yl}-isobutyramide] | 120 nM

Reference: patent US20110166121A1 (LG LIFE SCIENCES LTD., priority 2008, published 2011)
